Assay results: publication PMC6572996, “Silver(I) Complexes of the Pharmaceutical Agents Metronidazole and 4-Hydroxymethylpyridine: Comparison of Cytotoxic Profile for Potential Clinical Application” (Molecules, 2019)

Assays:
Balb/c 3T3 cells [1] = experiment: MTT assay (mitochondrial activity), Balb/c 3T3; format: cell-based, mouse; conditions: for Lowest concentration with significant (p ≤ 0.05) inhibition of mitochondrial activity (MTT): Balb/c 3T3, 72 h, vs negative control 0.1% DMSO
Protocol: (§1) Data obtained from the measurement of the optical density in these assays were transformed to percentages in relation to the control group, considered to be 100% for the MTT, NRU, and TPC assays and 0% for the LDH assay (Figure 1).
(§2) The human hepatoma cell line (HepG2) was purchased from the American Type Culture Collection (ATCC HB-8065). These cells were cultured in Minimum Essential Medium Eagle (MEME) (ATCC). The murine fibroblast cell line (Balb/c 3T3 clone A31) (gift from Department of Swine Diseases of the National Veterinary Research Institute in Pulawy) was cultured in Dulbecco’s Modified Eagle’s Medium (DMEM) (ATCC). The media were supplemented with 10% BCS (Balb/c 3T3), 10% FBS (HepG2), 1% L-glutamine, and 1% antibiotic solution. The cells were maintained in 75 cm^2 cell culture flasks (Nunc, Roskilde, Denmark) in a humidified incubator, NuAire (Plymouth, MN, USA) at 37 °C, in an atmosphere of 5% CO2. The medium was refreshed every two or three days and the cells were trypsinized by 0.25% trypsin–0.02% EDTA after reaching 70–80% confluence. Single cell suspensions were prepared and adjusted to a density of 2 × 10^5 cells/mL (HepG2) and 5 × 10^4 cells/mL (Balb/c 3T3). The cell suspension was transferred to 96-well plates (100 µL/well) and incubated for 24 h before the exposure to the study compounds.
(§3) The concentration ranges of compounds were chosen according to their solubility and their plasma level. Each compound was dissolved in DMSO. The final concentration of DMSO was 0.1% in the medium. The same final concentrations of the solvent and the 1% Trition-X 100 solution were used as the negative and positive controls, respectively. […] All compound solutions in the medium were freshly prepared and protected from light. […] The concentration range was selected on the basis of results from previous studies. Each concentration was tested in six replicates with three independent experiments. Cytotoxicity was assessed after 72 h of exposure of the cells to the compounds. The medium was not changed during the incubation time.
(§4) The metabolic activity of living cells was assessed by measuring the activity of dehydrogenases. After incubation of the cells with the compounds, a 10 μL portion of the MTT solution (5 mg/ml in PBS) was added to each well of the 96-well plates and incubated. After 3 h, the MTT solution was removed and the intracellular formazan crystals were dissolved in 100 µl DMSO. The plate was shaken for 15 min at room temperature and transferred to a microplate reader (LabSystems Multiskan RC, Thermo Fisher Scientific, Waltham, MA, USA) to measure the absorbance at 570 nm, using blanks as a reference. Cytotoxicity was expressed as a percentage of the negative control (0.1% DMSO).
(§5) The results of the tests were expressed as a mean ± SD. The experiments were performed in three independent repetitions. Statistical analysis was performed using GraphPad Prism 5 (San Diego, CA, USA). One-way analysis of variance (ANOVA) followed by Dunnett’s post-hoc test was applied. The 50% inhibition (cytotoxicity) concentrations (IC50) were derived from the dose–response curve plotted with the concentration of the compound (X-axis) vs. cell viability percent (Y-axis). The IC50 values were calculated by GraphPad Prism 5 software (San Diego, CA, USA). Statistical comparisons among IC50 values were performed by the analysis of variance (ANOVA) followed by the Tukey test. Values of p ≤ 0.05 were considered statistically significant.

Balb/c 3T3 cells [2] = experiment: NRU assay (lysosomal activity), Balb/c 3T3; format: cell-based, mouse; conditions: for Lowest concentration with significant (p ≤ 0.05) inhibition of lysosomal activity (NRU): Balb/c 3T3, 72 h, vs negative control 0.1% DMSO
Protocol: as §1, §2, §3
(§6) The assay, based on the staining of living cells by neutral red, was performed according to the protocol described by Borenfreund and Puerner. After incubation, the medium containing the compound was removed and the cells were washed with PBS. Then, a 100 µL/well of NR solution (50 µg/mL) was added for 3 h. After that time, the cells were washed with PBS. The dye from viable cells was released by extraction with a mixture of acetic acid, ethanol, and water. After 10 min of shaking, the absorbance of the dissolved NR was measured at 540 nm in a microplate reader (LabSystems Multiskan RC, Thermo Fisher Scientific, Waltham, MA, USA) using a blank as a reference. Cytotoxicity was expressed as a percentage of the negative control (0.1% DMSO).
as §5

Balb/c 3T3 cells [3] = experiment: TPC assay (total protein content), Balb/c 3T3; format: cell-based, mouse; conditions: for Lowest concentration with significant (p ≤ 0.05) decrease of total protein content (TPC): Balb/c 3T3, 72 h, vs negative control 0.1% DMSO
Protocol: as §1, §2, §3
(§7) The assay was based upon staining total cellular protein (proliferation). After incubation, the medium containing the compound was removed and 100 µL of Coomassie Brilliant Blue R-250 dye were added to each well. The plate was shaken for 10 min. Then, the stain was removed and the cells were rinsed twice with 100 µL of washing solution (glacial acetic acid/ethanol/water). After that, a 100 µL portion of the desorbing solution (1 M potassium acetate) was added and plates were shaken again for 10 min. The absorbance was measured at 595 nm in a microplate reader (LabSystems Multiskan RC, Thermo Fisher Scientific, Waltham, MA, USA) using a blank as a reference. Cytotoxicity was expressed as a percentage of the negative control (0.1% DMSO).
as §5

Balb/c 3T3 cells [4] = experiment: Leakage LDH assay (cellular membrane integrity), Balb/c 3T3; format: cell-based, mouse; conditions: for Lowest concentration with significant (p ≤ 0.05) disintegration of the cellular membrane (LDH): Balb/c 3T3, 72 h, vs negative control 0.1% DMSO
Protocol: as §1, §2, §3
(§8) The integrity of the plasma membrane was assessed using the test of lactate dehydrogenase (LDH) release, which was monitored using the commercially available Cytotoxicity Detection Kit (LDH) (Roche Diagnostics, Warsaw, Poland). The medium (100 µL/well) without cells was transferred into the corresponding wells of an optically clear 96-well flat bottom microplate and a 100 µl reaction mixture was added to each well. Then, the plates were incubated for 30 min at room temperature in darkness. After that time, a 50 µL/well 1 M HCl was added to stop the reaction. The absorbance was measured at 492 nm in a microplate reader (LabSystems Multiskan RC, Thermo Fisher Scientific, Waltham, MA, USA) using a blank as a reference.
as §5

HepG2 cells [5] = experiment: MTT assay (mitochondrial activity), HepG2; format: cell-based, human; conditions: for Lowest concentration with significant (p ≤ 0.05) inhibition of mitochondrial activity (MTT): HepG2, 72 h, vs negative control 0.1% DMSO
Protocol: as §1, §2, §3, §4, §5

HepG2 cells [6] = experiment: NRU assay (lysosomal activity), HepG2; format: cell-based, human; conditions: for Lowest concentration with significant (p ≤ 0.05) inhibition of lysosomal activity (NRU): HepG2, 72 h, vs negative control 0.1% DMSO
Protocol: as §1, §2, §3, §6, §5

HepG2 cells [7] = experiment: TPC assay (total protein content), HepG2; format: cell-based, human; conditions: for Lowest concentration with significant (p ≤ 0.05) decrease of total protein content (TPC): HepG2, 72 h, vs negative control 0.1% DMSO
Protocol: as §1, §2, §3, §7, §5

HepG2 cells [8] = experiment: Leakage LDH assay (cellular membrane integrity), HepG2; format: cell-based, human; conditions: for Lowest concentration with significant (p ≤ 0.05) disintegration of the cellular membrane (LDH): HepG2, 72 h, vs negative control 0.1% DMSO
Protocol: as §1, §2, §3, §8, §5

[9] = Cytotoxicity over four assays in both cell lines; format: cell-based; conditions: mouse (Balb/c 3T3) and human (HepG2), Balb/c 3T3 clone A31 fibroblasts and HepG2 hepatoma cells, mostly greater than 50%, read-out: Viability of the cells at the highest concentrations used
Protocol: as §1
as §2, with “Single cell suspensions were prepared and adjusted to a density of 2 × 10^5 cells/mL (HepG2) and 5 × 10^4 cells/mL (Balb/c 3T3). The cell suspension was transferred to 96-well plates (100 µL/well) and incubated for 24 h before the exposure to the study compounds.” left out
The concentration ranges of compounds were chosen according to their solubility and their plasma level. […] Cytotoxicity was assessed after 72 h of exposure of the cells to the compounds. […]
The results of the tests were expressed as a mean ± SD. […] The IC50 values were calculated by GraphPad Prism 5 software (San Diego, CA, USA). […]

[10] = system: murine melanoma (B16) cell line; design: method as in PMID 26828469; conditions: same observation as in this study; cited from earlier work
10T1/2 cell line = system: 10T1/2 cell line; design: method as in PMID 26828469; conditions: same observation as in this study; cited from earlier work

| SMILES | Lowest concentration with significant (p ≤ 0.05) inhibition of mitochondrial activity (MTT) (Balb/c 3T3 cells [1]) [µM] | Lowest concentration with significant (p ≤ 0.05) inhibition of lysosomal activity (NRU) (Balb/c 3T3 cells [2]) [µM] | Lowest concentration with significant (p ≤ 0.05) decrease of total protein content (TPC) (Balb/c 3T3 cells [3]) [µM] | Lowest concentration with significant (p ≤ 0.05) disintegration of the cellular membrane (LDH) (Balb/c 3T3 cells [4]) [µM] | Lowest concentration with significant (p ≤ 0.05) inhibition of mitochondrial activity (MTT) (HepG2 cells [5]) [µM] | Lowest concentration with significant (p ≤ 0.05) inhibition of lysosomal activity (NRU) (HepG2 cells [6]) [µM] | Lowest concentration with significant (p ≤ 0.05) decrease of total protein content (TPC) (HepG2 cells [7]) [µM] | Lowest concentration with significant (p ≤ 0.05) disintegration of the cellular membrane (LDH) (HepG2 cells [8]) [µM] | IC50 (Balb/c 3T3 cells [1]; Mus musculus, BALB/c3T3, Balb/c 3T3, 72 h exposure, mean (n = 3) ± SEM, read-out: Inhibitory concentration IC50, MTT) [µM] | IC50 (Balb/c 3T3 cells [2]; Mus musculus, BALB/c3T3, Balb/c 3T3, 72 h exposure, mean (n = 3) ± SEM, read-out: Inhibitory concentration IC50, NRU) [µM] | IC50 (Balb/c 3T3 cells [3]; Mus musculus, BALB/c3T3, Balb/c 3T3, 72 h exposure, mean (n = 3) ± SEM, read-out: Inhibitory concentration IC50, TPC) [µM] | IC50 (Balb/c 3T3 cells [4]; Mus musculus, BALB/c3T3, Balb/c 3T3, 72 h exposure, mean (n = 3) ± SEM, read-out: Inhibitory concentration IC50, LDH) [µM] | IC50 (HepG2 cells [5]; Homo sapiens, HepG2, 72 h exposure, mean (n = 3) ± SEM, read-out: Inhibitory concentration IC50, MTT) [µM] | IC50 (HepG2 cells [6]; Homo sapiens, HepG2, 72 h exposure, mean (n = 3) ± SEM, read-out: Inhibitory concentration IC50, NRU) [µM] | IC50 (HepG2 cells [7]; Homo sapiens, HepG2, 72 h exposure, mean (n = 3) ± SEM, read-out: Inhibitory concentration IC50, TPC) [µM] | IC50 (HepG2 cells [8]; Homo sapiens, HepG2, 72 h exposure, mean (n = 3) ± SEM, read-out: Inhibitory concentration IC50, LDH) [µM] | viability at 72 h [9] [%] | Cytotoxicity in B16 cell line [10] | Cytotoxicity in 10T1/2 cell line (10T1/2 cell line) |
| --- | --- | --- | --- | --- | --- | --- | --- | --- | --- | --- | --- | --- | --- | --- | --- | --- | --- | --- | --- |
| O=[N+]([O-])[O-].OCc1ccncc1.OCc1ccncc1.[Ag+] [Silver(I) + 4-hydroxymethylpyridine, [(4-hydroxymethylpyridine)2Ag]NO3] | 3.8 | 0.98 | 1.9 | 0.98 | 3.8 | 3.8 | 7.6 | 3.8 |  |  |  |  |  |  |  |  |  |  |  |
| Cc1ncc([N+](=O)[O-])n1CCO.Cc1ncc([N+](=O)[O-])n1CCO.O=[N+]([O-])[O-].[Ag+] [Silver(I) + metronidazole, [(Metronidazole)2AgNO3]] | 0.74 | 3.0 | 3.0 | 0.74 | 6.0 | 6.0 | 3.0 | 6.0 |  |  |  |  |  |  |  |  |  |  |  |
| OCc1ccncc1 [4-hydroxymethylpyridine] | 13.6 | 7.0 | 57 |  |  |  |  |  | > 227 | > 227 | > 227 | > 227 | > 227 | > 227 | > 227 | > 227 | > 50 | poorly cytotoxic | poorly cytotoxic |
